Experimental data: US10822376B2, “Biologically active peptides” (Baxalta Incorporated, priority 2008, dated 2020)
Converted amounts (≈) assume the structure as drawn. *1 amine or outer side, *2 acyl side, *3 side chain or, on linkers, in order; H or OH if unused. Where a SMILES comes first, the peptide text is derived from it. Where no end group is shown, it is not given here. [ ]: non-standard residue; d: D form. The star is where a group is joined. NH(CH2)3(OCH2CH2)2O(CH2)3NH = C(CN[*:1])COCCOCCOCCCN[*:2]; X1 = NC(=O)CCC(=O)NCCCOCCOCCOCCCN*; Suc = O=C(CCC(=O)[*:2])[*:1]

Tests used:
[1] = tested on: human FVIII inhibited plasma; assay: Defined Intrinsic Thrombin Generation Assay (DITGA, triggered by FXIa and phospholipids); format: biochemical; conditions: for Activity in the Defined Intrinsic Thrombin Generation Assay: summary
Source text: (§1) The intrinsic pathway of thrombin generation may be assayed in a thrombin generation assay by including FXIa and phospholipids. In such an assay, which is similar to an activated partial thromboplastin time (aPTT) test, thrombin generation is solely directed through the intrinsic pathway, and is FVIII dependent. A suitable assay is the Defined Intrinsic Thrombin Generation Assay described below. Alternatively, by employing low concentrations of TF and phospholipids instead of FXIa and phospholipids, thrombin is generated by both the extrinsic (tissue factor) and the intrinsic pathways. This form of the thrombin generation assay is the more physiologic one, as both thrombin generation pathways are involved; it is partially FVIII dependent. A suitable assay is the Defined Dual-Pathway Thrombin Generation Assay.
The Defined Intrinsic Thrombin Generation Assay is performed as follows. FVIII activity of human plasma is inhibited by incubating (2 hours, 37° C.) 40 μl of human normal plasma with 10 μl heat inactivated anti-human FVIII plasma raised in goat (600 BU/ml, 6 hours incubated at 56° C.). […] Instead of FVIII-inhibited plasma, FVIII inhibitor patient plasma or several depleted plasmas can be used. The micro-plate is immediately put into a GENios Plus (Tecan) or Safire 2 (Tecan) fluorescence reader and the fluorescence signal (ex 340 nm/em 440 nm) is followed kinetically by reading the plate every 21 seconds.
For calculation of activity equivalent units experiments are performed with dilutions of Factor Eight Inhibitor Bypassing Agent (FEIBA, Baxter AG), Immunate (human FVIII, purified plasma derived) reference standard (Baxter AG) or Recombinate standard (human FVIII, purified recombinant, Baxter AG). A linear fit of the logarithm of FEIBA (FVIII) concentration plotted against thrombin generation time at peak thrombin results in a standard curve. With this curve FEIBA (FVIII) equivalent activity is calculated for a defined peptide concentration. […] Thus, where a concentration of 100 μM is given, the actual concentration in the final assay volume in 40 μM.
Compounds were screened using the “Defined intrinsic thrombin generation assay” in which thrombin generation was quantified in vitro in FVIII-inhibited human plasma in the presence of Factor XIa and phospholipid vesicles. Further compounds were screened in the above assay, and in the “Defined dual-pathway thrombin generation assay” using tissue factor and phospholipids instead of Factor XIa and phospholipids, as described in the specific description.
Various concentrations of each peptide were tested in the defined intrinsic thrombin generation assay using human FVIII inhibited plasma.

[2] = tested on: FVIII inhibited plasma; assay: Defined Dual-Pathway Thrombin Generation Assay (DDPTGA, reagent C high), FVIII inhibited plasma; format: biochemical, human; conditions: for Peak IIa FEIBA EU / Peak IIa FVIIa EU / Peak Time FEIBA EU / Peak Time FVIIa EU: FVIII inhibited plasma; for Activity in the Defined Dual-Pathway Thrombin Generation Assay: summary, FVIII inhibited or deficient plasma
Source text: as §1
(§2) Preferably, Reagent C high is used.
(§3) Tissue factor dependency of peak thrombin generation and thrombin peak time was characterised in a composition containing a fixed concentration of phospholipid (namely 3.2 μM). Phospholipid dependency was characterised in a composition containing a fixed concentration of tissue factor (namely 7.2 μM). Peak time (time to peak thrombin generation) was dependent on the concentration of phospholipid or tissue factor. The final version of this assay is as described in the specific description, in which 10 μl reagent C high containing (32 μM phospholipid and 71.6 μM tissue factor) is used in a total volume of 100 μl.
(§4) Further studies were conducted using 3.2 μM phospholipid and 7.2 μM tissue factor in FVIII deficient or inhibited plasma, to characterise the effect on peak thrombin generation and thrombin peak time of various coagulation factor preparations. These studies provided a basis from which to compare the efficacy of the compounds in the assay. Briefly, rFVIII (Recombinate® FVIII from Baxter) was tested at 0, 5, 10, 20, 40 and 80 mU/ml in FVIII deficient plasma. FEIBA was tested at 0, 8, 16, 31, 63 and 125 mU/ml in FVIII inhibited plasma. FVIIa was tested at 0, 0.1, 0.4, 1.6, 6.3 and 25 nM in FVIII inhibited plasma. […] Peak thrombin increased and both the lag time and the thrombin peak time decrease.

[3] = tested on: FVIII deficient plasma; assay: Defined Dual-Pathway Thrombin Generation Assay (DDPTGA, reagent C high), FVIII deficient plasma; format: biochemical, human; conditions: FVIII deficient plasma
Source text: as §1, §2, §3, §4

[4] = tested on: Factor VIII deficient human plasma; assay: DDPTGA (reagent B) in FVIII depleted plasma; format: biochemical; conditions: compounds at 50 μM and 80, 90 or 100 μM; note: key: '+' means stimulates; '−' means does not stimulate
Source text: as §2

[5] = physchem; conditions: pH 7.4
Protocol: (§5) Aqueous solubility is measured in PBS at pH 7.4 either in an assay provided by Cerep (France, Catalog ref. 900-11a) or according to the following protocol. The aim of this procedure is to determine the solubility of a drug candidate (analyte) in a buffer, by estimating the saturation concentration of the candidate in the buffer using HPLC. A known concentration of the candidate in an organic solvent is used as a standard. A stock solution of the test compound in DMSO must be prepared as the initial step. […] DMSO stock-solutions are diluted to a final concentration of 50 μM with DMSO (100% reference-solution) and buffer (test-solution) to provide a minimum volume of 500 μL of each. Both solutions are shaken at 25° C. at 950 rpm in an Eppendorf “thermomixer comfort” for at least 60 min. The suspension is centrifuged at 22 330 g for at least two min and 100 μL of the supernatant is transferred into polypropylene-inserts placed in glass vials and closed by snap-ring caps. Alternatively the solutions can be prepared in microtiter plates with half of the previously described starting solvent volume. For the determination of the solubility all samples are analyzed by HPLC in triplicate. Injection volume is at least 10 μL. The obtained data are analyzed by “Chemstation-software” (Agilent, Waldbronn, Germany). The peaks from the analyses of the organic solutions are integrated and the arithmetic mean is reported as “AUC 1” (reference area of known amount injected at the HPLC). […] The ratio of the mean “AUC 2” and “AUC 1” is calculated and thus the percentage of the dissolved amount of compound in buffer is obtained and solubility can be reported in μM.

[6] = Plasma stability; conditions: human
Protocol: Half-life of compounds in human or mouse plasma, or percentage of compound remaining after an incubation in human or mouse plasma, is determined as follows. In the experimental procedure, test compound concentrations are 5 μM, prepared from test compound stock solutions of 10 mM in DMSO. Propantheline is used as a standard. […] All of the samples are incubated in a water bath at 37° C. […] After a chosen duration of incubation (generally at t=60 min) each sample is mixed with a further 500 μl acetonitrile. The samples are mixed on a vortex mixer for 30 s and placed on ice for 10 min and collected for centrifugation. Samples are centrifuged at 20 000 g for 10 min at 4° C. 500 μl supernatant is transferred into a new 1.5 ml Eppendorf tube and an equal volume of acetonitrile is added. The sample is mixed again for 30 s using a vortex mixer. After a second centrifugation step (20 000 g, 10 min, 4° C.) 250 μl of the supernatant is transferred into HPLC glass vials for HPLC-MS analysis. Conditions for performing HPLC are as follows: Injection-volume is set to 20 μl. Temperature is set to 25° C. A linear gradient from 95:5 to 5:95 water:acetonitrile both containing 0:05% trifluoroacetic acid (TFA) (v/v) is applied at a flow rate of 0.3 ml/min for 10 min. The PDA-detector is scanning from 210-400 nm.

[7] = in vitro; conditions: human, pH 7.4
[8] = in vitro; conditions: mouse, pH 7.4
[9] = molecular target: HERG channel (Homo sapiens, UniProt Q12809); assay: HERG inhibition, patch clamp assay
Chain of HERG channel (Q12809 whole entry): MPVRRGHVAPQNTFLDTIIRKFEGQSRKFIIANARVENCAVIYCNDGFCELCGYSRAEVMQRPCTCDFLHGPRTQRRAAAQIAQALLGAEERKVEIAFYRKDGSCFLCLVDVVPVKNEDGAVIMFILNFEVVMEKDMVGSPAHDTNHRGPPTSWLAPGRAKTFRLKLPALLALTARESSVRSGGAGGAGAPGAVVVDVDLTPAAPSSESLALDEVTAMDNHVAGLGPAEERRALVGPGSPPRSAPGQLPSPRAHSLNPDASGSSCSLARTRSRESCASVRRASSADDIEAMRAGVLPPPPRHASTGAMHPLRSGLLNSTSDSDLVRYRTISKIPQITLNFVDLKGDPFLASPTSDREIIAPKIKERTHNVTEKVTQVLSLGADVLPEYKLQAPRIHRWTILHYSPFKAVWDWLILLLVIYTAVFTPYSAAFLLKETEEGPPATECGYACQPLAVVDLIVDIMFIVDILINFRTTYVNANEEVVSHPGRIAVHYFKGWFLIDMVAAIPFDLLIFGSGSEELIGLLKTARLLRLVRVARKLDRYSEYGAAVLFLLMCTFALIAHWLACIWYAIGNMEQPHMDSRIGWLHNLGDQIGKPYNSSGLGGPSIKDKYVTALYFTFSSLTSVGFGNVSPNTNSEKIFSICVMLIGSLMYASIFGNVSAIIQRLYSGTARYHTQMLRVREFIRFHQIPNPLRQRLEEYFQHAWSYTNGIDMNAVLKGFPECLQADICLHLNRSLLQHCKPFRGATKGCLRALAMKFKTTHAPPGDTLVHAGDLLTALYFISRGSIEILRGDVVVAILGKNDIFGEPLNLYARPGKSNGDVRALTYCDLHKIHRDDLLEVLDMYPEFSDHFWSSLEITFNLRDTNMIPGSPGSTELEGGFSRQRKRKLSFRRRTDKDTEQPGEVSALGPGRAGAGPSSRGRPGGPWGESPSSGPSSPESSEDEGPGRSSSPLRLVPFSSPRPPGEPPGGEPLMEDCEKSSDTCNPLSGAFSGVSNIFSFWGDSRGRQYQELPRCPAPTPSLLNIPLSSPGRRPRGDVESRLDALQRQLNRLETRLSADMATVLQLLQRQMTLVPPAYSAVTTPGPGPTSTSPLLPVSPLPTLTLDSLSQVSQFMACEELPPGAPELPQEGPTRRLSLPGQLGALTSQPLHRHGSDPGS
Protocol: QT prolongation is assessed by HERG inhibition measured by patch-clamp techniques or Rb^+ efflux.
For rigorous characterization of HERG inhibition the patch clamp assay is applied (Cerep, France, Catalog ref. 900-36). […] The test compounds (10 mM stock solutions) were dissolved in dimethylsulfoxide (DMSO). The solutions at 1 μM contained 0.01% DMSO.

[10] = pH 7.4
Protocol: as §5

Compound | Thrombin peak time given as FEIBA equivalent activity ([1]; peptide 6.25 μM) [mU/ml] | Thrombin peak time given as FEIBA equivalent activity ([1]; peptide 12.5 μM) [mU/ml] | Thrombin peak time given as FEIBA equivalent activity ([1]; peptide 25 μM) [mU/ml] | Thrombin peak time given as FEIBA equivalent activity ([1]; peptide 50 μM) [mU/ml] | Thrombin peak time given as FEIBA equivalent activity ([1]; peptide 100 μM) [mU/ml] | Activity in the Defined Intrinsic Thrombin Generation Assay [1] | Peak IIa FEIBA EU ([2]; peptide 50 μM) | Peak IIa FVIIa EU ([2]; peptide 50 μM) | Peak Time FEIBA EU ([2]; peptide 50 μM) | Peak Time FVIIa EU ([2]; peptide 50 μM) | Activity in the Defined Dual-Pathway Thrombin Generation Assay [2] | Peak IIa FVIII EU ([3]; peptide 50 μM) | Peak Time FVIII EU ([3]; peptide 50 μM) | solubility kinetic [5] [µM] | remaining at 0.5 h, 5 μM [6] [%] | Peak IIa FEIBA EU ([2]; peptide 100 μM) | Peak IIa FVIIa EU ([2]; peptide 100 μM) | Peak Time FEIBA EU ([2]; peptide 100 μM) | Peak Time FVIIa EU ([2]; peptide 100 μM) | Peak IIa FVIII EU ([3]; peptide 100 μM) | also measured
CC[C@H](C)[C@H](NC(=O)[C@H](CCC(=O)O)NC(=O)[C@H](Cc1ccccc1)NC(=O)[C@H](Cc1ccc(O)cc1)NC(=O)[C@H](CC(C)C)NC(=O)[C@H](CC(=O)O)NC(=O)[C@H](Cc1c[nH]c2ccccc12)NC(=O)[C@@H](NC(=O)[C@H](CC(=O)O)NC(=O)[C@H](Cc1ccccc1)NC(=O)[C@H](CCC(=O)O)NC(=O)[C@H](CCSC)NC(=O)[C@H](CCCNC(=N)N)NC(=O)CCC(=O)NCCCOCCOCCOCCCN)C(C)C)C(=O)N[C@H](C(=O)N[C@@H](Cc1c[nH]c2ccccc12)C(=O)NCCCOCCOCCOCCCNC(=O)CCC(N)=O)C(C)C [Peptide A08] ({NH(CH2)3(OCH2CH2)2O(CH2)3NH-Suc}-RMEFDVWDLYFEIVW-X1) | 563 | 656 | 764 | 958 | 1213 | possess activity | BLS (BLS = below lowest standard.) | BLS (BLS = below lowest standard.) | 9.1 mU/ml | 0.4 nM | possess activity | BLS (BLS = below lowest standard.) | BLS (BLS = below lowest standard.) | 11 (≈ 29.2 µg/mL) | 70 | – | – | – | – | – | Stimulation of thrombin generation [4]: +
CC[C@@H](C)[C@@H](NC(=O)[C@@H](CO)NC(C)=O)C(=O)N[C@H](CCSC)C(=O)N[C@H](Cc1ccccc1)C(=O)N[C@H](Cc1c[nH]c2ccccc12)C(=O)N[C@H](Cc1ccc(O)cc1)C(=O)N[C@H](CC(=O)O)C(=O)N[C@H](CCC(=O)O)C(=O)N[C@H](Cc1ccc(O)cc1)C(=O)N[C@H](CCC(=O)O)C(N)=O [Peptide B07, Ac-simfwydeye-NH2] (Ac-[dS][dI][dM][dF][dW][dY][dD][dE][dY][dE]-NH2) | – | – | – | – | – | possess activity | – | – | – | – | – | – | – | 195 (≈ 278 µg/mL) | 89 | – | – | – | – | – | –
CC(=O)CC(c1ccccc1)c1c(O)c2ccccc2oc1=O (stereo not shown) [Warfarin, warfarin] | – | – | – | – | – | – | – | – | – | – | – | – | – | – | – | – | – | – | – | – | recovery at 6 h, 10 μM [7]: 99.3%; recovery at 6 h, 10 μM [8]: 88.6%
Ac-RMDFDVWDLYFEIVW-NH2 [Peptide A03] | 477 | 639 | 762 | 1069 | 1396 | possess activity | BLS (BLS = below lowest standard.) | BLS (BLS = below lowest standard.) | BLS (BLS = below lowest standard.) | BLS (BLS = below lowest standard.) | possess activity | BLS (BLS = below lowest standard.) | BLS (BLS = below lowest standard.) | 110 | 92 | BLS (BLS = below lowest standard.) | BLS (BLS = below lowest standard.) | BLS (BLS = below lowest standard.) | BLS (BLS = below lowest standard.) | BLS (BLS = below lowest standard.) | Peak Time FVIII EU ([3]; peptide 100 μM): BLS (BLS = below lowest standard.)
Ac-VWDLYFEIVW-NH2 [Peptide A19] | 383 | 495 | 525 | 663 | 826 | possess activity | – | – | – | – | – | – | – | 14 | 99 | – | – | – | – | – | –
PEG5000-RMKFDVWDLYFEIVW-NH2 [Peptide A16] | – | – | – | – | – | – | BLS (BLS = below lowest standard.) | BLS (BLS = below lowest standard.) | BLS (BLS = below lowest standard.) | BLS (BLS = below lowest standard.) | – | BLS (BLS = below lowest standard.) | BLS (BLS = below lowest standard.) | – | – | BLS (BLS = below lowest standard.) | BLS (BLS = below lowest standard.) | BLS (BLS = below lowest standard.) | BLS (BLS = below lowest standard.) | BLS (BLS = below lowest standard.) | Peak Time FVIII EU ([3]; peptide 100 μM): BLS (BLS = below lowest standard.); Classification as HERG-channel blocker (potency ranking of Roche et al.) [9]: low-potency; Aqueous solubility [10]: 220 µM; Solubility in PBS [10]: >200 µM
PEG5000-WSLYFEIVWE [Peptide A17] | – | – | – | – | – | – | BLS (BLS = below lowest standard.) | BLS (BLS = below lowest standard.) | BLS (BLS = below lowest standard.) | BLS (BLS = below lowest standard.) | possess activity | BLS (BLS = below lowest standard.) | 5.1 mU/ml | – | – | BLS (BLS = below lowest standard.) | BLS (BLS = below lowest standard.) | BLS (BLS = below lowest standard.) | 0.1 nM | BLS (BLS = below lowest standard.) | Peak Time FVIII EU ([3]; peptide 100 μM): 5.9 mU/ml; Aqueous solubility [10]: 2000 µM
